From ChEMBL document CHEMBL1151042, “5-HT4receptor antagonists : oxazolo, oxazino and oxazepino[3,2-a]indole derivatives” (Bioorg Med Chem Lett, 1994)

Columns and labels:
[1] = target: 5-hydroxytryptamine receptor 4 (Cavia porcellus, UniProt O70528); assay: Ability to block 5-HT4 receptor mediated effect of 5-HT was assessed in the guinea-pig distal colon longitudinal muscle myenteric plexus preparation (LMMP)
[2] = target: Serotonin 4 (5-HT4) receptor (Sus scrofa, UniProt Q6Q253); assay: Compound was evaluated for its ability to inhibit the binding of 5-HT4 receptor radioligand [125I]SB 207710 to piglet hippocampal membrane; type: tissue-based, Hippocampus
Serotonin 4 (5-HT4) receptor, sequence (Q6Q253 whole entry): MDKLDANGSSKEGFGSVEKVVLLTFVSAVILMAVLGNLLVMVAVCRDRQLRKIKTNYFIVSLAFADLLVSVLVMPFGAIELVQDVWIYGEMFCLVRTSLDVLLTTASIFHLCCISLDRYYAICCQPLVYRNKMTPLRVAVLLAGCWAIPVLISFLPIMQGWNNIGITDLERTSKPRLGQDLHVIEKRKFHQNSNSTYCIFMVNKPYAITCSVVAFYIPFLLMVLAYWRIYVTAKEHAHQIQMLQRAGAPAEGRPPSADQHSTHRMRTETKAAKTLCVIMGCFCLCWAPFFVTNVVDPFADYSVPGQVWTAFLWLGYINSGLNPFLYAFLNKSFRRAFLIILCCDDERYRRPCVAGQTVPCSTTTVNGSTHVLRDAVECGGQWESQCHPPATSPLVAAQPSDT

5-hydroxytryptamine receptor 4, sequence (O70528 whole entry): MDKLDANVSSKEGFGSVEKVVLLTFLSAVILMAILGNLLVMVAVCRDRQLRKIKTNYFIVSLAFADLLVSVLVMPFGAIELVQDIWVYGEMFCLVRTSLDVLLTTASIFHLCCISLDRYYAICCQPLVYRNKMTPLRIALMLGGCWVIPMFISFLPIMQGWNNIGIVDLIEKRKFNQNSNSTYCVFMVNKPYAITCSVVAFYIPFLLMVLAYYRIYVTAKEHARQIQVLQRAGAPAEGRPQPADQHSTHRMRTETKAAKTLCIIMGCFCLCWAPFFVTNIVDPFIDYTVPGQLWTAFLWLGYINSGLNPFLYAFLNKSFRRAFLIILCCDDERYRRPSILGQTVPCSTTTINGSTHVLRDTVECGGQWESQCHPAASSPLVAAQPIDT

| SMILES | IC50 [1] [nM] | Ki [2] [nM] |
| --- | --- | --- |
| CCCCN1CCC(COC(=O)c2c3n(c4ccccc24)CCO3)CC1 | 0.1 | 0.0794 |
| CCCCN1CCC(COC(=O)c2c3n(c4ccccc24)CCCO3)CC1 | 0.0251 | 0.0631 |
| CCCCN1CCC(COC(=O)c2cc(Cl)c(N)c3c2OCCO3)CC1 | 0.0794 | 0.126 |

Second part, the compound after the results:

| IC50 [1] [nM] | Ki [2] [nM] | SMILES |
| --- | --- | --- |
| 0.501 | 2.51 | CCCCN1CCC(COC(=O)c2c[nH]c3ccccc23)CC1 |
| 0.158 | 0.2 | CCCCN1CCC(COC(=O)c2c3n(c4ccccc24)CCCCO3)CC1 |
